Laboratory results reported in patent US20060205671A1 (priority 2003, published 2006).
Read-outs that look alike come from different tables or passages of the source.

What was measured:
[1] = tested on: rabbit model of coronary occlusion-reperfusion; details: cited from earlier work; for Effect of antagonist on the effects of PolyA (infarct size): given with PolyA, KW-3902 1 mg/kg i.v.
[2] = tested on: canine model of 15 minutes coronary artery occlusion; details: 30,000 KIU/kg bolus plus 7,000 KIU/kg/hr i.v. prior to occlusion; vs saline control; cited from earlier work
isolated canine hearts = details: cardioplegia containing 150 KIU aprotinin, cited from earlier work
[3] = tested on: rat model of coronary artery occlusion and 24 hours of reperfusion; details: cited from earlier work
[4] = tested on: permanent (24 hours) coronary artery occlusion; details: 100,000 KIU i.v. 30 minutes after occlusion; cited from earlier work
rat myocardium slices = details: 200 KIU aprotinin, cited from earlier work
isolated rat hearts = details: 105 KIU/L aprotinin, pretreatment and adjunct to crystalloid cardioplegia; cited from earlier work
[5] = tested on: canine model of severe coronary occlusion; details: 10 μM in blood perfusate, first 30 min of reperfusion; after two hours of reperfusion; vs vehicle; cited from earlier work
[6] = tested on: reperfusion injury in the canine preparation; details: 24 hours after start of reflow, cited from earlier work
neutrophils = details: cited from earlier work; for Superoxide generation by neutrophils: neutrophils activated by fMLP, A23187, concanavalin A (adenosine)
[7] = tested on: closed-chest porcine model of regional ischemia and reperfusion; assay: Non-surgical ischemia-reperfusion injury in a closed-chest porcine model (75 min LAD occlusion, reperfusion); format: in vivo
Method: The use of combined adenosine and aprotinin treatment in the cath-lab setting was performed in a closed-chest porcine model of regional ischemia and reperfusion. Farm-bred pigs were initially anesthetized with ketamine, xylazine, acepromazine, diazepam and atropine, followed by maintenance anesthesia with inhaled isoflurane. Through a small femoral artery cut-down, a pigtail catheter was fluoroscopically guided into the left ventricle for injection of non-radioactive microspheres to measure regional myocardial blood flow. A similar cut-down was performed on the contralateral femoral artery, through which was placed a sheath to introduce a 7-Fr guide catheter and angioplasty-type balloon catheters. The 7-Fr guide catheter was inserted into this sheath and fluoroscopically guided to the left main coronary artery. The left main coronary ostium was engaged by the catheter and a guide wire. An angioplasty-type balloon catheter was guided into the LAD just distal to the first diagonal branch. […]
After all instrumentation was complete, the animal was allowed to stabilize for 10 minutes. Baseline hemodynamics (arterial pressure, heart rate) and myocardial blood flow (microspheres) were measured. The microspheres were injected via the pigtail catheter to quantify myocardial blood flow during steady state. […]

[8] = tested on: ischemically injured hearts (30 minutes of normothermic global ischemia); details: blood cardioplegia supplemented with 400 μM adenosine vs unsupplemented; cited from earlier work
platelets = details: exogenous adenosine; cited from earlier work
[9] = tested on: canine model of LAD occlusion with reperfusion; details: cited from earlier work
[10] = tested on: models of LAD occlusion followed by reperfusion; details: at onset of reperfusion, continued 2 hours post-reperfusion; cited from earlier work
[11] = 5,000 KIU/kg before onset of reperfusion, vs vehicle
[12] = 20,000 KIU/kg before onset of reperfusion
[13] = infusion for first hour of reperfusion

Molecule: CCCn1c(=O)c2[nH]c(C34CC5CC(CC3C5)C4)nc2n(CCC)c1=O [KW-3902, 8-(3-noradamantyl)-1,3-dipropylxanthine]
- Effect of antagonist on the effects of PolyA (infarct size) [1]: not altered

Molecule: aprotinin
- Recovery of systolic function in the area at risk (systolic shortening) [2]: significantly greater recovery
- Lysosomal enzyme N-acetyl-β-D-glucosaminidase in coronary sinus blood during reperfusion (isolated canine hearts): significantly lower
- Recovery of systolic function (end-systolic pressure-volume relationship) (isolated canine hearts): significantly less recovery
- Post-ischemic non-specific creatine kinase (CK) activity or CK-MB isoenzyme activity (isolated canine hearts; vs control group): no difference
- Recovery of post-ischemic ATP after reperfusion (isolated canine hearts; vs control group): significantly greater
- Infarct size estimated from myocardial creatine kinase loss [3, 11]: significantly reduced
- Neutrophil accumulation (myocardial myeloperoxidase) [3, 11]: significantly reduced
- Appearance of apoptosis in the area at risk myocardium ([3]; 5,000 or 20,000 KIU/kg before onset of reperfusion): attenuated
- Infarct size estimated from myocardial creatine kinase loss [3, 12]: further significantly reduced
- Neutrophil accumulation (myocardial myeloperoxidase) [3, 12]: significantly reduced
- Histologically apparent infarct size [4]: decreased
- ATP content and protein synthesis of myocardium slices (rat myocardium slices; 4° C., up to 6 hours of storage): attenuated the decline
- TNFα generation and uptake by myocardial tissue slices (rat myocardium slices): suppressed
- Myocardial protection (isolated rat hearts): significant protection

Molecule: Cn1c(=O)c2[nH]c(-c3ccc(S(=O)(=O)O)cc3)nc2n(C)c1=O [8-SPT, 8-p-sulfophenyl theophylline]
- Effect of antagonist on the effects of PolyA (infarct size) [1]: reversed

Molecule: Nc1ncnc2c1ncn2[C@@H]1O[C@H](CO)[C@@H](O)[C@H]1O [adenosine]
- Infarct size as percent of AAR (An/ARR) [5]: significantly lower
- Infarct size as percent of LV (An/LV) [5]: significantly lower
- Regional contractile function ([6]; intracoronary 3.75 mg/min at onset of reperfusion): improved
- Reduction of infarct size ([6]; intracoronary into LAD 3.75 mg/min at onset of reperfusion): 75%
- Superoxide generation by neutrophils (neutrophils): inhibited
- Infarct size ([7]; intracoronary adenosine approx 10-20 μM LAD blood concentration for about 30 min at reperfusion, group of three animals, delivery questionable (no vasodilatory effect at 15 min)): 40.4±3.6%
- Infarct size ([7]; intracoronary adenosine approx 10-20 μM for about 30 min at reperfusion, the one experiment with delivery confirmed by vasodilation at 15 min reperfusion): 10%
- Post-ischemic systolic dysfunction [8]: reversed
- Concentrations inhibiting platelet aggregation (platelets): 2 to 40 µM

Molecule: CCNC(=O)[C@H]1O[C@@H](n2cnc3c(N)nc(NCCc4ccc(CCC(=O)O)cc4)nc32)[C@H](O)[C@@H]1O [CGS-21680, 2-[p-(2-carbonyl-ethyl)-phenylethylamino]-5′-N-ethylcarboxamidoadenosine]
- Superoxide generation by neutrophils (neutrophils): attenuated
- Infarct size ([9]; 60 min occlusion, intracoronary infusion for first hour of reperfusion, saline vehicle 29.8±2.3%): 15.4±2.9 % of the area at risk
- Neutrophil accumulation in the area at risk [9, 13]: significantly reduced
- Wall motion [9, 13]: no improvement

Molecule: 1S-[1a,2b,3b,4a(S*)]]-4-[7-[[2-(3-chloro-2-thienyl)-1-methylpropyl]amino]-3H-imidazo[4,5-b]pyridyl-3-yl]cyclopentane carboxamide [AMP-579]
- Infarct size [10]: reduced

Molecule: polyadenylic acid
- PMNs superoxide generation and adherence to coronary endothelium (neutrophils): significantly inhibited
- Reduction of infarct size ([1]; nearly sub-vasodilator dose at reperfusion): 50%
